The text below walks through data of ChEMBL document CHEMBL4000141, “Synthesis and carbonic anhydrase isoenzymes I, II, IX, and XII inhibitory effects of dimethoxybromophenol derivatives incorporating cyclopropane moieties” (J Med Chem, 2015).

For assay [1], the target named is Carbonic anhydrase 9 (Homo sapiens, UniProt Q16790).
Description: Inhibition of human CA9 by stopped-flow CO2 hydration method
In assay [2] the target is Carbonic anhydrase 12 (Homo sapiens, UniProt O43570). As to the kind of experiment: Inhibition of human CA12 by stopped-flow CO2 hydration method.

Each structure is given as a SMILES string. Some results are limits rather than exact numbers.

Carbonic anhydrase 12, sequence (O43570 whole entry): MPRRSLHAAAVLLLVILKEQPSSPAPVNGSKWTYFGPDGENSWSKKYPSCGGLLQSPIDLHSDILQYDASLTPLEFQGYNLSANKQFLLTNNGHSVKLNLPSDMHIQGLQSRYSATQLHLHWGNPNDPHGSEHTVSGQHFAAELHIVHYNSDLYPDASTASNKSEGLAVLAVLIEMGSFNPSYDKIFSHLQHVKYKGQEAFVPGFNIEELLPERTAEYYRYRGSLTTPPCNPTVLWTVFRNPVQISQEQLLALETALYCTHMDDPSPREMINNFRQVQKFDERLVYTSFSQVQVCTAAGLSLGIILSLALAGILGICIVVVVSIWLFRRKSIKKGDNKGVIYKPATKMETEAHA

One may read the Ki as a dissociation constant, usually derived from enzyme kinetics or from competition with a known ligand. Lower therefore signals tighter binding. As to `COc1cc(Br)c(C[C@@H]2C[C@H]2C(=O)O)c(Br)c1OC`, the Ki in assay [1] and in assay [2] was more than 50 µM throughout.

Take `COc1ccc(C[C@@H]2C[C@@H]2C(=O)O)cc1OC`: the Ki in assay [1] stood at 8.8 µM.

Turning to `COc1cc(C[C@H]2C[C@H]2C(=O)O)c(Br)c(Br)c1OC`, the inhibition constant (Ki) in assay [1] and in assay [2] was more than 50 µM in each case.

In assay [1], `CCOC(=O)[C@@H]1C[C@H]1Cc1c(Br)c(Br)c(OC)c(OC)c1Br` yielded a Ki of 7.8 µM.

Take `CCOC(=O)[C@@H]1C[C@@H]1Cc1c(Br)cc(OC)c(OC)c1Br`: in assay [1], the Ki worked out at 8.9 µM.

In assay [1], `CCOC(=O)[C@@H]1C[C@H]1Cc1cc(OC)c(OC)c(Br)c1Br` returned a Ki of 9 µM.

As to `COc1ccc(C[C@@H]2C[C@H]2C(=O)O)cc1OC`, the Ki in assay [1] was 1.1 µM.

Molecule `COc1c(Br)c(Br)c(C[C@@H]2C[C@H]2C(=O)O)c(Br)c1OC` returned an inhibitory constant (Ki) in assay [1] of more than 50 µM.

In the case of `CCOC(=O)[C@@H]1C[C@@H]1Cc1ccc(OC)c(OC)c1`, in assay [1], the Ki is 6.6 µM.

On to `COc1cc(Br)c(C[C@@H]2C[C@H]2C(=O)O)cc1OC`, for which the Ki in assay [1] worked out at 9.8 µM.

In the case of `COc1ccc(C[C@@H]2C[C@H]2CO)cc1OC`, the Ki in assay [1] was 8.8 µM.

Take `COc1cc(C[C@@H]2C[C@H]2C(=O)O)c(Br)c(Br)c1OC`: the Ki in assay [1] and in assay [2] was more than 50 µM each time.

`CCOC(=O)[C@@H]1C[C@@H]1Cc1cc(OC)c(OC)c(Br)c1Br` came in with a Ki in assay [1] of more than 50 µM.

In assay [1], `CCOC(=O)[C@@H]1C[C@H]1Cc1cc(OC)c(OC)cc1Br` had a Ki of 7.3 µM.

Consider `COc1ccc(C[C@H]2C[C@H]2CO)cc1OC`, for which, in assay [1], the Ki was determined as 4.9 µM.

In assay [1], `CCOC(=O)[C@@H]1C[C@H]1Cc1ccc(OC)c(OC)c1` showed a Ki of 9.1 µM.

For the molecule `COc1cc(Br)c(C[C@H]2C[C@H]2C(=O)O)c(Br)c1OC`, the Ki in assay [1] and in assay [2] was more than 50 µM in each case.

Take `COc1cc(Br)c(C[C@H]2C[C@H]2C(=O)O)cc1OC`: the Ki in assay [1] is more than 50 µM.

On to `CCOC(=O)[C@@H]1C[C@H]1Cc1c(Br)cc(OC)c(OC)c1Br`, for which the affinity in assay [1], expressed as Ki, was 9.7 µM.

`COc1c(Br)c(Br)c(C[C@H]2C[C@H]2C(=O)O)c(Br)c1OC` yielded an inhibition constant Ki in assay [1] of 10.5 µM.

As to `CCOC(=O)[C@@H]1C[C@@H]1Cc1cc(OC)c(OC)cc1Br`, the Ki in assay [1] worked out at 1 µM.

`CCOC(=O)[C@@H]1C[C@@H]1Cc1c(Br)c(Br)c(OC)c(OC)c1Br`: in assay [1], the Ki is more than 50 µM.
